Test results reported in ChEMBL document CHEMBL5724558, “Image-based profiling of drug vulnerabilities in CRC organoids” (2024).
Several values for one entry are separate records, joined by “and”; a condition that tells them apart may be missing. Identical values can stand only once.

What was measured:
Assay type in all cases: functional, Homo sapiens
Design in all cases: dose or concentration left out as unconfirmed
Colon cancer organoid [1] = experiment: (§1) Image-based profiling of donated chemical probes and chemogenomic kinase set in O21 CRC organoid. Image analysis is performed on the sum area metric, and the data were normalized to the DMSO control. After imaging the organoid viability is measured using the OneGloEX Luciferase Assay System. The normalized viability data and sum area are reported.
Colon cancer organoid [2] = experiment: as §1, with “O09” for “O21”
Colon cancer organoid [3] = experiment: as §1, with “O06” for “O21”

Row | SMILES | Cell Viability (Colon cancer organoid [1]; Replication number 1) | Cell Viability (Colon cancer organoid [1]; Replication number 2) | Cell Viability (Colon cancer organoid [2]; Replication number 1) | Cell Viability (Colon cancer organoid [2]; Replication number 2) | Cell Viability (Colon cancer organoid [3]; Replication number 1) | Cell Viability (Colon cancer organoid [3]; Replication number 2)
1 | C[C@@H]1CCc2ncc(F)cc2[C@H]2CCCN2c2ccn3ncc(c3n2)C(=O)N1 [SELITRECTINIB] | 119.212% and 110.383% | 103.521% and 97.8769% | 111.995% and 102.727% | 91.1731% and 73.4267% | 134.929% and 121.742% | 93.5037% and 107.969%
2 | CN(C)C(=O)c1ccc(-c2cc(C(=O)N(C)C3CCCC3)no2)cc1O | 136.03% and 124.037% | 110.351% and 113.842% | 101.196% and 104.096% | 94.5921% and 98.6379% | 136.959% and 113.074% | 141.385% and 104.673%
3 | CCc1cc2cc(NS(=O)(=O)c3ccc(C#N)cc3)ccc2n(CC)c1=O | 101.899% and 123.449% | 90.9641% and 104.714% | 136.869% and 118.47% | 168.563% and 119.449% | 145.787% and 148.591% | 141.244% and 141.715%
4 | COc1ccc2c(c1)O[C@@H](c1ccc(OC)c(OC)c1)C[C@H]2NC(=O)C1(c2ccc3c(c2)OC(F)(F)O3)CC1 [A-1596586] | 105.739% and 116.224% | 98.6022% and 86.1659% | 77.2703% and 96.7863% | 76.2669% and 106.86% | 114.211% and 123.158% | 130.418% and 120.375%
5 | CCNC(=O)c1cc2c(-c3cc(C(C)(C)O)ccc3Oc3c(C)cc(F)cc3C)cn(C)c(=O)c2[nH]1 [ABBV-744] | 105.916% and 106.401% | 102.084% and 111.158% | 57.6147% and 40.8037% | 73.5027% and 48.4637% | 111.05% and 99.302% | 81.1787% and 70.2602%
6 | C[C@H](c1ccc(F)cc1)N(Cc1ccc(Cl)c(C(=O)O)c1)C(=O)c1cnc2ccccc2c1 [PF-05257137] | 104.015% and 83.2471% | 99.7446% and 91.3265% | 171.765% and 153.146% | 140.713% and 101.643% | 112.636% and 114.286% | 58.4583% and 44.0628%
7 | COc1cc(Nc2nc(C)cc(-c3cnn4nc(OC)ccc34)n2)cc(C(F)(F)F)c1 | 100.392% and 88.9748% | 126.257% and 100.876% | 104.965% and 91.5636% | 103.466% and 113.093% | 101.755% and 109.64% | 94.2101% and 91.9205%
8 | Cc1c(Oc2ccc(F)cc2)c(OC(C)C)nn1-c1ccc(C2CC2)cn1 [IPP/CNRS-A019] | 82.2152% and 84.0306% | 88.4065% and 90.7546% | 105.275% and 104.102% | 106.079% and 88.8184% | 86.662% and 99.3522% | 111.4% and 120.615%
9 | CNC(=O)c1ccccc1Nc1cc(Nc2ccc(N3CCOCC3)cc2OC)ncc1C(F)(F)F [VS-4718] | 46.4172% and 62.2044% | 35.2448% and 60.1632% | 16.1966% and 32.4497% | 15.3454% and 34.2982% | 26.6369% and 55.3846% | 24.9671% and 46.6122%
10 | Cc1nc(C2CCN(C(=O)c3ccc(OC(F)(F)F)cc3N)CC2)c2ncc(N3CCN(C)CC3)cc2n1 [BAY-693] | 120.305% and 115.678% | 95.3265% and 86.6757% | 87.1033% and 97.7241% | 88.4972% and 107.653% | 107.628% and 117.814% | 129.663% and 123.258%
11 | CN(C)[C@H]1CCN(c2cc(-c3ccccc3)nc3ccnn23)C1 [(S)-ZINC-3573] | 105.743% and 100.4% | 101.814% and 109.109% | 74.4521% and 108.791% | 105.794% and 104.481% | 125.32% and 118.543% | 115.524% and 96.3479%
12 | O=C(O)c1ccc2c(c1)nc(Nc1cccc(Cl)c1)c1ccncc12 [SILMITASERTIB] | 103.567% and 112.056% | 102.008% and 128.967% | 75.9271% and 48.6208% | 96.2856% and 65.3282% | 95.4776% and 72.7779% | 97.8% and 96.4524%
13 | O=C(NOCC1CC1)c1ccc(F)c(F)c1Nc1ccc(I)cc1Cl [CI-1040] | 35.0082% and 32.446% | 40.3855% and 37.5387% | 15.162% and 31.6659% | 27.5568% and 31.5843% | 3.322% and 9.147% | 3.495% and 11.5373%
14 | Cc1cc2c(-c3ccco3)cnc(N[C@@H]3CCN(C)C[C@H]3C(=O)NC3CCCCC3)c2[nH]c1=O [GSK789] | 106.004% and 111.859% | 101.857% and 104.521% | 34.6914% and 67.3378% | 49.9263% and 76.5266% | 45.8732% and 77.9757% | 46.7874% and 82.8928%
15 | Cl.Cl.c1ccc([C@@H]2C[C@H]2NC2CCNCC2)cc1 | 139.321% and 134.03% | 128.492% and 116.527% | 165.336% and 102.473% | 183.388% and 100.348% | 175.971% and 140.859% | 170.528% and 119.251%
16 | O=C(NOC[C@H](O)CO)c1ccc(F)c(F)c1Nc1ccc(I)cc1F [MIRDAMETINIB] | 22.725% and 32.892% | 19.7018% and 35.9842% | 6.019% and 17.678% | 3.596% and 12.9307% | 3.1671% and 12.2187% | 2.358% and 7.568%
17 | CCC(F)(F)c1cc(N2CCC(S(C)(=O)=O)CC2)nc2sc(C(N)=O)c(N)c12 [BI-605906] | 102.215% and 104.22% | 98.7028% and 111.659% | 110.631% and 99.0371% | 105.468% and 104.877% | 130.001% and 116.599% | 81.7833% and 117.011%
18 | COc1cc(N2CCC(O)CC2)ccc1Nc1cc(Nc2ccccc2S(=O)(=O)C(C)C)c2cc[nH]c2n1 | 85.5887% and 104.808% | 115.828% and 93.8467% | 95.9238% and 77.0453% | 69.9407% and 56.4198% | 110.737% and 120.851% | 95.8479% and 104.062%
19 | Cc1cnc(-c2cc(Cl)ccc2F)cc1-n1c(=O)n(CC(N)=O)c2ccccc21 [Al11] | 94.0699% and 103.674% | 91.9117% and 97.8926% | 78.4595% and 96.5987% | 101.459% and 100.317% | 119.898% and 115.628% | 113.033% and 103.316%
20 | FC(F)(F)c1ccc2c(c1)nc(-c1cccnc1)n2C1CC1 [MSD-CYP11B2-Negative-control] | 89.0845% and 95.4893% | 78.0159% and 105.031% | 82.6005% and 103.914% | 111.8% and 104.679% | 82.4588% and 96.4372% | 50.7409% and 62.2297%
21 | Cc1cc(C)cc([C@@H]2c3cc(C)ccc3NC(=O)CN2C(=O)c2ccc(Br)s2)c1 | 115.521% and 108.165% | 94.8359% and 62.8282% | 106.396% and 98.9954% | 263.199% and 111.182% | 111.534% and 83.1141% | 141.021% and 89.6176%
22 | COc1cc(Nc2nccc(-c3cnn4nc(OC)ccc34)n2)cc(C(F)(F)F)c1 | 43.8285% and 81.0407% | 69.763% and 98.0422% | 18.7716% and 22.0247% | 18.9351% and 21.2081% | 24.0396% and 55.0969% | 25.0029% and 51.7745%
23 | COCCN1CCC(c2cc(CN(C)C(=O)c3cccc(Oc4ccccc4)c3)ccn2)CC1 | 116.465% and 111.692% | 91.1118% and 90.2148% | 147.027% and 86.0124% | 179.06% and 107.19% | 195.683% and 128.295% | 160.805% and 131.439%
24 | O=C(O)c1ccc(-c2c[nH]c3ncc(-c4ccccc4)cc23)cc1C1CCCC1 [GSK-650394] | 104.512% and 92.3751% | 123.401% and 109.943% | 86.6407% and 76.4679% | 121.957% and 104.927% | 96.4947% and 115.731% | 112.452% and 109.917%
25 | COc1ccc2c(c1)O[C@H](c1ccc(OC)c(OC)c1)C[C@@H]2NC(=O)C1(c2ccc3c(c2)OC(F)(F)O3)CC1 [A-1596584] | 106.5% and 117.861% | 103.505% and 102.481% | 121.374% and 104.664% | 90.4474% and 94.7661% | 59.7741% and 88.9069% | 99.5304% and 111.725%
26 | C[C@@H]1CC(=O)Nc2cccc(-c3ccc4c(c3)c(-c3cnn(C)c3)nn4C)c2N1 | 80.8439% and 121.097% | 82.2884% and 110.621% | 75.8759% and 56.1051% | 135.457% and 81.8182% | 59.3391% and 89.8792% | 80.6716% and 83.4041%
27 | CC(=O)N1CCC(c2ccc(C(=O)NC(=N)N)cc2C(F)(F)F)CC1 [BI 9627] | 89.2518% and 118.176% | 98.5958% and 100.51% | 138.648% and 103.929% | 116.481% and 107.777% | 92.5077% and 96.2529% | 95.2505% and 62.3038%
